Data on 18 compounds can be found in patent US12612360B2 (Sanofi, priority 2020, dated 2026).

The assay deals with T1, ERα (Homo sapiens, UniProt P03372).
T1 construct: host or cells: MCF7
T1 sequence (P03372 1-595): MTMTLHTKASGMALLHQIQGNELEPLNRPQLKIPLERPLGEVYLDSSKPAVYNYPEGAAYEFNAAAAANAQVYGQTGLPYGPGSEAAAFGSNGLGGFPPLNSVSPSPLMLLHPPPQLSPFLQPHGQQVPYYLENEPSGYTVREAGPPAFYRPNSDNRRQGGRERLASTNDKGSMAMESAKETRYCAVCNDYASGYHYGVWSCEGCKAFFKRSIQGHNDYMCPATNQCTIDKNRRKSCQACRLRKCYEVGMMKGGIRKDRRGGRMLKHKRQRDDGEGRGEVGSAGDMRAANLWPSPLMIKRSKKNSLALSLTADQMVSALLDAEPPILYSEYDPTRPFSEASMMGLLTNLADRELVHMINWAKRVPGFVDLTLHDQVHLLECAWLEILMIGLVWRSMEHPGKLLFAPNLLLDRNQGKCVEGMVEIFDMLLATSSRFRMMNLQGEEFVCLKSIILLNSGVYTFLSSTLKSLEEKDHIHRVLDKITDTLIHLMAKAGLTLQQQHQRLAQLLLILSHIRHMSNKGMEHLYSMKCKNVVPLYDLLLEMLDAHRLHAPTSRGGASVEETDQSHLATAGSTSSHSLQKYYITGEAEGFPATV
Briefly: Estrogen receptor degradation activity: breast cancer cell ERα in cell western assay (MCF7 cells). The class given is cell-based. The settings on record: for % Degradation At 0.3 μM: 4 hours, relative to fulvestrant 0.1 μM positive control; for DC50: 4 hours post compound addition, concentration which degrades 50% of the estrogen receptor, read-out: Degradation IC50. On the procedure:
Test: Estrogen Receptor Degradation Activity Said test involves measuring the in vitro degradation activity of the compounds of the Table 1a. The measurements of the degradation activities were made using a breast cancer cell ERα in cell western assay as described hereunder. MCF7 cells (ATCC) were seeded in 384 wells microplate (collagen coated) at a concentration of 10000 cells/30 μL per well in red phenol free MEM alpha medium (invitrogen) containing 5% charcoal dextran striped FBS. The following day, 9 points serial 1:5 dilution of each compound was added to the cells in 2.5 μL at final concentrations ranging from […] (in table 2), or 0.1 μM for fulvestrant (using as positive control). At 4 hours post compound addition the cells were fixed by adding 25 μL of formalin (final concentration 5% formalin containing 0.1% triton) for 10 minutes at room temperature and then washed twice with PBS. Then, 50 μL of LI-COR blocking buffer containing 0.1% Triton was added to plate for 30 minutes at room temperature. LI-COR blocking buffer was removed and cells were incubated overnight at cold room with 50 μL anti-ER rabbit monoclonal antibody (Thermo scientific MA1-39540) diluted at 1:1000 in LI-COR blocking buffer containing 0.1% tween-20. Wells which were treated with blocking buffer but no antibody were used as background control. Wells were washed twice with PBS (0.1% tween-20) and incubated at 37° C. for 60 minutes in LI-COR (0.1% tween-20) containing goat anti-rabbit antibody Alexa 488 (1:1000) and Syto-64 a DNA dye (2 μM final concentration). Cells were then washed 3 times in PBS and scanned in ACUMEN explorer (TTP-Labtech). Integrated intensities in the green fluorescence and red fluorescence were measured to determine the levels of ERα and DNA respectively. The degradation activity with respect to estrogen receptors in this test is given by the concentration which degrades 50% of the estrogen receptor (or IC50) in nM. […] DMSO−fulvestrant)).

The structures appear in SMILES notation.

On to `Cc1cc(F)ccc1C1=C(c2cc(C)c(C=C3CN(CCCF)C3)c(F)c2)c2ccc(C(=O)O)cc2CCC1` [Example 28, 8-(4-fluoro-2-methylphenyl)-9-(3-fluoro-4-((1-(3-fluoropropyl)azetidin-3-ylidene)methyl)-5-methylphenyl)-6,7-dihydro-5H-benzo[7]annulene-3-carboxylic acid], for which the “% Degradation At 0.3 μM” value is listed as 90% and the DC50 came out at 1000 pM.
`Cc1c(C2=C(c3ccc(C=C4CN(CCCF)C4)cc3)c3ccc(C(=O)O)cc3CCC2)ccc(F)c1F` [Example 29, 8-(3,4-difluoro-2-methylphenyl)-9-(4-((1-(3-fluoropropyl)azetidin-3-ylidene)methyl)phenyl)-6,7-dihydro-5H-benzo[7]annulene-3-carboxylic acid]: the “% Degradation At 0.3 μM” value was found to be 96% and the DC50 was found to be 300 pM.
Consider `Cc1cc(F)ccc1C1=C(c2ccc(C=C3CN(CCCF)C3)c(F)c2C)c2ccc(C(=O)O)cc2CCC1` [Example 30, 8-(4-fluoro-2-methylphenyl)-9-(3-fluoro-4-((1-(3-fluoropropyl)azetidin-3-ylidene)methyl)-2-methylphenyl)-6,7-dihydro-5H-benzo[7]annulene-3-carboxylic acid], for which the “% Degradation At 0.3 μM” value is on record as 91% and the DC50 stood at 1800 pM.
On to `Cc1cc(C=C2CN(CCCF)C2)cc(F)c1C1=C(c2ccc(F)cc2F)CCCc2cc(C(=O)O)ccc21` [Example 31, 8-(2,4-difluorophenyl)-9-(2-fluoro-4-((1-(3-fluoropropyl)azetidin-3-ylidene)methyl)-6-methylphenyl)-6,7-dihydro-5H-benzo[7]annulene-3-carboxylic acid], for which the “% Degradation At 0.3 μM” value stood at 92% and the DC50 is 800 pM.
With `O=C(O)c1ccc2c(c1)CCCC(c1c(F)cc(F)cc1F)=C2c1ccc(C=C2CN(CCCF)C2)cc1` [Example 33, 9-(4-((1-(3-fluoropropyl)azetidin-3-ylidene)methyl)phenyl)-8-(2,4,6-trifluorophenyl)-6,7-dihydro-5H-benzo[7]annulene-3-carboxylic acid], the “% Degradation At 0.3 μM” value is 92% and the DC50 turned out to be 300 pM.
Consider `O=C(O)c1ccc2c(c1)CCCC(c1ccc(C3CC3)cc1F)=C2c1ccc(C=C2CN(CCCF)C2)cc1` [Example 34, 8-(4-cyclopropyl-2-fluorophenyl)-9-(4-((1-(3-fluoropropyl)azetidin-3-ylidene)methyl)phenyl)-6,7-dihydro-5H-benzo[7]annulene-3-carboxylic acid], for which the “% Degradation At 0.3 μM” value was found to be 90% and the DC50 was 300 pM.
Regarding `O=C(O)c1ccc2c(c1)CCCC(c1ncc(Cl)cc1C(F)(F)F)=C2c1ccc(C=C2CN(CCCF)C2)cc1` [Example 35, 8-(5-chloro-3-(trifluoromethyl)pyridin-2-yl)-9-(4-((1-(3-fluoropropyl)azetidin-3-ylidene)methyl)phenyl)-6,7-dihydro-5H-benzo[7]annulene-3-carboxylic acid], the “% Degradation At 0.3 μM” value is on record as 93% and the DC50 stood at 400 pM.
For the compound `Cc1cc(F)ccc1C1=C(c2cc(F)c(C=C3CN(CCCF)C3)c(F)c2)c2ccc(C(=O)O)cc2CCC1` [Example 36, 9-(3,5-difluoro-4-((1-(3-fluoropropyl)azetidin-3-ylidene)methyl)phenyl)-8-(4-fluoro-2-methylphenyl)-6,7-dihydro-5H-benzo[7]annulene-3-carboxylic acid], the “% Degradation At 0.3 μM” value is 89% and the DC50 amounted to 400 pM.
For `O=C(O)c1ccc2c(c1)CCCC(c1ccc(Cl)cc1C(F)(F)F)=C2c1ccc(C=C2CN(CCCF)C2)cc1` [Example 37, 8-(4-chloro-2-(trifluoromethyl)phenyl)-9-(4-((1-(3-fluoropropyl)azetidin-3-ylidene)methyl)phenyl)-6,7-dihydro-5H-benzo[7]annulene-3-carboxylic acid] the same measures were 87% and 400 pM.
`Cc1ccc(F)cc1C1=C(c2ccc(C=C3CN(CCCF)C3)cc2)c2ccc(C(=O)O)cc2CCC1` [Example 38, 8-(5-fluoro-2-methylphenyl)-9-(4-((1-(3-fluoropropyl)azetidin-3-ylidene)methyl)phenyl)-6,7-dihydro-5H-benzo[7]annulene-3-carboxylic acid]: the “% Degradation At 0.3 μM” value is reported as 91% and the DC50 turned out to be 200 pM.
For `Cc1cc(C2CC2)ccc1C1=C(c2ccc(C=C3CN(CCCF)C3)cc2)c2ccc(C(=O)O)cc2CCC1` [Example 39, 8-(4-cyclopropyl-2-methylphenyl)-9-(4-((1-(3-fluoropropyl)azetidin-3-ylidene)methyl)phenyl)-6,7-dihydro-5H-benzo[7]annulene-3-carboxylic acid] the same measures were 87% and 200 pM.
With `O=C(O)c1ccc2c(c1)CCCC(c1ccc(F)cc1C1CC1)=C2c1ccc(C=C2CN(CCCF)C2)cc1` [Example 40, 8-(2-cyclopropyl-4-fluorophenyl)-9-(4-((1-(3-fluoropropyl)azetidin-3-ylidene)methyl)phenyl)-6,7-dihydro-5H-benzo[7]annulene-3-carboxylic acid], the “% Degradation At 0.3 μM” value worked out at 87% and the DC50 worked out at 300 pM.
Regarding `Cc1ccc(C2=C(c3ccc(C=C4CN(CCCF)C4)cc3)c3ccc(C(=O)O)cc3CCC2)c(Cl)c1` [Example 41, 8-(2-chloro-4-methylphenyl)-9-(4-((1-(3-fluoropropyl)azetidin-3-ylidene)methyl)phenyl)-6,7-dihydro-5H-benzo[7]annulene-3-carboxylic acid], the “% Degradation At 0.3 μM” value is listed as 92% and the DC50 worked out at 200 pM.
Take `O=C(O)c1ccc2c(c1)CCCC(c1c(F)cccc1Cl)=C2c1ccc(C=C2CN(CCCF)C2)cc1` [Example 42, 8-(2-chloro-6-fluorophenyl)-9-(4-((1-(3-fluoropropyl)azetidin-3-ylidene)methyl)phenyl)-6,7-dihydro-5H-benzo[7]annulene-3-carboxylic acid]: the “% Degradation At 0.3 μM” value was 91% and the DC50 turned out to be 200 pM.
For `O=C(O)c1ccc2c(c1)CCCC(c1ccc(F)cc1F)=C2c1ccc(C=C2CN(CCCF)C2)c(F)c1F` [Example 43, 9-(2,3-difluoro-4-((1-(3-fluoropropyl)azetidin-3-ylidene)methyl)phenyl)-8-(2,4-difluorophenyl)-6,7-dihydro-5H-benzo[7]annulene-3-carboxylic acid], the “% Degradation At 0.3 μM” value was determined as 92% and the DC50 is 400 pM.
As for `Cc1cc(C2=C(c3ccc(F)cc3C)CCCc3cc(C(=O)O)ccc32)ccc1C=C1CN(CCCF)C1.Cl` [Example 44, 8-(4-fluoro-2-methylphenyl)-9-(4-((1-(3-fluoropropyl)azetidin-3-ylidene)methyl)-3-methylphenyl)-6,7-dihydro-5H-benzo[7]annulene-3-carboxylic acid hydrochloride], the “% Degradation At 0.3 μM” value was determined as 91% and the DC50 amounted to 400 pM.
`Cc1cc(C2=C(c3ccc(F)cc3C)CCCc3cc(C(=O)O)ccc32)c(C)cc1C=C1CN(CCCF)C1` [Example 45, 8-(4-fluoro-2-methylphenyl)-9-(4-((1-(3-fluoropropyl)azetidin-3-ylidene)methyl)-2,5-dimethylphenyl)-6,7-dihydro-5H-benzo[7]annulene-3-carboxylic acid]: the “% Degradation At 0.3 μM” value is on record as 89% and the DC50 came to 700 pM.
The corresponding values for `Cc1cc(F)ccc1C1=C(c2ccc(C=C3CN(CCCF)C3)c(C#N)c2)c2ccc(C(=O)O)cc2CCC1` [Example 46, 9-(3-cyano-4-((1-(3-fluoropropyl)azetidin-3-ylidene)methyl)phenyl)-8-(4-fluoro-2-methylphenyl)-6,7-dihydro-5H-benzo[7]annulene-3-carboxylic acid] are 94% and 6000 pM.
